For orientation: IC50 means the concentration that gives 50% inhibition.

Data set [1] is described as follows: Selectivity index, ratio of IC50 for rat L6 cells to IC50 for trypomastigote forms of Trypanosoma cruzi Tulahuen C2C4 infected in rat L6 cells. The class given is toxicity, cell-based. The note with it: read-out: Ratio IC50.
The test system of data set [2] is Trypanosoma cruzi. In words: Antiparasitic activity against trypomastigote forms of Trypanosoma cruzi Tulahuen C2C4 infected in rat L6 cells assessed as inhibition of growth after 96 hrs by inverted microscopy. Type of data set: functional, organism-based. The following applies: Tulahuen C2C4, L6, 96 h.
In data set [3] the test system is L6. In words: Cytotoxicity against rat L6 cells after 72 hrs by alamar blue assay. The class given is cell-based. The following applies: L6, 72 h. For orientation: The colour change of resazurin is a common sign of viable cells or microbes.
Data set [4] is described as follows: Selectivity index, ratio of IC50 for rat L6 cells to IC50 for bloodstream forms of Trypanosoma brucei rhodesiense STIB 900. The class given is toxicity, cell-based. The note with it: read-out: Ratio IC50.
Data set [5] relates to Trypanosoma cruzi. In words: Ratio of benznidazol IC50 to compound IC50 for trypomastigote forms of Trypanosoma cruzi Tulahuen C2C4 infected in rat L6 cells assessed as inhibition of growth after 96 hrs by inverted microscopy. The class given is functional.
For data set [6], the system named is Trypanosoma brucei brucei. The data set can be described thus: Trypanocidal activity against bloodstream forms of Trypanosoma brucei brucei Lister 427 clone 221a overexpressing type I nitroreductase assessed as inhibition of proliferation after 3 days by resazurin assay in presence of tetracycline. Type of data set: functional, organism-based. The note with it: 72 h.

Data set [7] has as its system Leishmania donovani. In words: Antiparasitic activity against axenic amastigote forms of Leishmania donovani MHOM/ET/67/L82 assessed as inhibition of growth after 72 hrs by resazurin assay. Type of data set: functional, organism-based. The following applies: MHOM/ET/67/L82, 72 h.
Data set [8] deals with Trypanosoma brucei brucei. In words: Trypanocidal activity against wild type bloodstream forms of Trypanosoma brucei brucei Lister 427 clone 221a assessed as inhibition of proliferation after 3 days by resazurin assay. Type of data set: functional, organism-based. The note with it: 72 h.
The nature of data set [9]: Selectivity index, ratio of IC50 for rat L6 cells to IC50 for axenic amastigote forms of Leishmania donovani MHOM/ET/67/L82. Type of data set: toxicity, cell-based. The note with it: read-out: Ratio IC50.
For data set [10], the system named is Trypanosoma brucei rhodesiense. The data set can be described thus: Antiparasitic activity against bloodstream forms of Trypanosoma brucei rhodesiense STIB 900 assessed as inhibition of growth after 72 hrs by resazurin assay. Type of data set: functional, organism-based. The note with it: STIB 900, 72 h.
Data set [11] has as its system Trypanosoma brucei brucei. The data set can be described thus: Trypanocidal activity against bloodstream forms of Trypanosoma brucei brucei Lister 427 clone 221a overexpressing type I nitroreductase assessed as inhibition of proliferation after 3 days by resazurin assay in absence of tetracycline. The following applies: 72 h. The class given is functional, organism-based.

Data set [12] relates to Trypanosoma brucei brucei. In words: Ratio of IC50 for bloodstream forms of Trypanosoma brucei brucei Lister 427 clone 221a overexpressing type I nitroreductase in absence of tetracycline to IC50 for bloodstream forms of Trypanosoma brucei brucei Lister 427 clone 221a overexpressing type I nitroreductase in presence of tetracycline. The class given is functional.

Each structure is given as a SMILES string.

For `O=C(NCCCn1cnc([N+](=O)[O-])n1)c1ccc(C(F)(F)F)nc1`, the selectivity ratio in data set [1] was greater than 84; in [4], greater than 82. Moreover, the half-inhibitory concentration (IC50) was 3.46 µM in [2] and greater than 291 µM in [3]. In data set [5], the “Ratio IC50” value is reported as 0.5.
Take `O=[N+]([O-])c1ncn(CCCCNS(=O)(=O)c2ccc(Cl)s2)n1`: the selectivity ratio came to 278 in data set [1], 6 in data set [9] and 247 in data set [4]. Also, the IC50 in data set [6] turned out to be 0.55 µM; in data set [2], 0.462 µM; in data set [7] it was 20 µM; in data set [8] it was 22.9 µM; in data set [3] it was 128 µM; in data set [10] it was 0.52 µM. For the same compound, in data set [11], the IC50 was determined as 21.6 µM. Besides, the results for the “Ratio IC50” value in data set [5] and in data set [12] were 4.42 and 39.2, respectively.
For the compound `O=[N+]([O-])c1ncn(CCCNS(=O)(=O)c2cc(Cl)sc2Cl)n1`, the selectivity ratio in data set [1] stood at 216; in [9], 7; in [4] it was 75. Moreover, the half-inhibitory concentration (IC50) worked out at 0.22 µM in [6]; 0.552 µM in data set [2]; 17.8 µM in [7]; 2.94 µM in data set [8]; 119 µM in data set [3]; 1.59 µM in data set [10]. In [11], the IC50 was 4.25 µM. The “Ratio IC50” value in [5] came out at 3.7; in data set [12], 19.3.
`O=[N+]([O-])c1ncn(CCCNS(=O)(=O)c2cc(Cl)c(Cl)s2)n1`: the selectivity ratio in data set [1] amounted to 639; in data set [9], 8; in data set [4] it was 200. Further, the IC50 was found to be 0.52 µM in [6]; 0.158 µM in data set [2]; 13.2 µM in data set [7]; 15.5 µM in [8]; 101 µM in data set [3]; 0.505 µM in data set [10]. Further, the half-maximal inhibitory concentration (IC50) in [11] came to 17 µM. Besides, the results for the “Ratio IC50” value in [5] and in [12] were 14.31 and 32.6, respectively.
Turning to `O=[N+]([O-])c1ncn(CCCCNS(=O)(=O)c2cc(Cl)c(Cl)s2)n1`, the figures for the selectivity ratio in [1], in data set [9] and in data set [4] were 261, 9 and 447, respectively. Further, the IC50 was determined as 0.19 µM in data set [6]; 0.373 µM in data set [2]; 10.6 µM in data set [7]; 0.61 µM in data set [8]; 97 µM in [3]; 0.218 µM in data set [10]. For the same compound, in data set [11], the half-inhibitory concentration (IC50) is 0.46 µM. Moreover, the “Ratio IC50” value was found to be 6.07 in data set [5] and 2.4 in data set [12].
On to `O=[N+]([O-])c1nccn1CCCNS(=O)(=O)c1cc(Cl)sc1Cl`, for which the selectivity ratio in data set [1] turned out to be 15; in data set [9], 8; in data set [4], 3. Besides, the IC50 in [2] came to 6.99 µM; in data set [7], 13.1 µM; in data set [3] it was 108 µM; in data set [10], 40.3 µM. The “Ratio IC50” value in data set [5] is 0.32.
As for `O=[N+]([O-])c1nccn1CCCNS(=O)(=O)c1cc(Cl)c(Cl)s1`, the selectivity ratio was 16 in data set [1], 10 in data set [9] and 2 in [4]. Besides, the IC50 stood at 4.75 µM in data set [2], 7.35 µM in [7], 75 µM in data set [3] and 32.7 µM in [10]. In data set [5], the “Ratio IC50” value turned out to be 0.48.
With `Cc1csc(C(=O)NCCCn2cnc([N+](=O)[O-])n2)c1`, the figures for the selectivity ratio in data set [1], in [9] and in [4] were 68, 4 and 176, respectively. The IC50 stood at 0.33 µM in [6]; 2.55 µM in data set [2]; 46.1 µM in data set [7]; 9.69 µM in data set [8]; 173 µM in data set [3]; 0.98 µM in data set [10]. Also, the IC50 in data set [11] came out at 6.34 µM. Further, the “Ratio IC50” value in data set [5] is 0.8; in data set [12] it was 19.2.
On to `O=C(NCCCn1cnc([N+](=O)[O-])n1)c1ccsc1`, for which the selectivity ratio is greater than 89 in [1], greater than 5 in [9] and greater than 389 in [4]. The concentration for half-maximal inhibition (IC50) is 0.29 µM in [6]; 3.99 µM in [2]; 71.2 µM in [7]; 26.8 µM in [8]; greater than 356 µM in data set [3]; 0.915 µM in data set [10]. In addition, the IC50 in [11] was 21.2 µM. Besides, the “Ratio IC50” value stood at 0.57 in data set [5] and 73 in data set [12].
On to `O=C(NCCCCn1cnc([N+](=O)[O-])n1)c1ccsc1`, for which the figures for the selectivity ratio in data set [1], in data set [9] and in [4] were greater than 194, greater than 12 and greater than 418, respectively. For the same compound, the IC50 in data set [6] is 0.31 µM; in data set [2], 1.75 µM; in data set [7], 27.7 µM; in [8], 3.02 µM; in data set [3] it was greater than 339 µM; in data set [10], 0.81 µM. Further, in data set [11], the IC50 was 2.49 µM. The “Ratio IC50” value came to 1.3 in data set [5] and 8 in data set [12].
Turning to `Cc1cc(C(=O)NCCCn2cnc([N+](=O)[O-])n2)c(C)o1`, the figures for the selectivity ratio in data set [1], in [9] and in data set [4] were greater than 39, greater than 3 and greater than 73, respectively. The IC50 is 8.87 µM in [2], 132 µM in data set [7], greater than 341 µM in data set [3] and 4.71 µM in data set [10]. In addition, the “Ratio IC50” value in data set [5] is recorded as 0.25.
Regarding `Cc1ccoc1C(=O)NCCCn1cnc([N+](=O)[O-])n1`, the selectivity ratio in data set [1] is greater than 12; in data set [9], greater than 3; in [4], greater than 22. For the same compound, the IC50 in data set [2] is 30.4 µM; in data set [7], 139 µM; in [3], greater than 358 µM; in [10], 16.4 µM. Besides, in data set [5], the “Ratio IC50” value is 0.07.
Consider `Cc1nc([N+](=O)[O-])cn1CCCNS(=O)(=O)c1ccc(Cl)s1`, for which the selectivity ratio worked out at 3 in data set [1] and 6 in data set [4]. Moreover, the values for the IC50 in data set [2], in [3] and in data set [10] were 102 µM, 261 µM and 47.2 µM, respectively. Besides, the “Ratio IC50” value in data set [5] is on record as 0.02.
Consider `Cc1nc([N+](=O)[O-])cn1CCCNC(=O)c1nc2ccccc2s1`, for which the selectivity ratio is greater than 3 in data set [1] and 2 in [4]. Also, the IC50 is 105 µM in [2], greater than 290 µM in data set [3] and 173 µM in data set [10]. Further, in data set [5], the “Ratio IC50” value was 0.01.
With `Cc1nc([N+](=O)[O-])cn1CCCNC(=O)c1sc2ccccc2c1Cl`, the selectivity ratio in [1] was 6; in [4], 5. In addition, the half-inhibitory concentration (IC50) in data set [2] was 32.2 µM; in data set [3], 189 µM; in data set [10], 39.4 µM. In addition, the “Ratio IC50” value in [5] is listed as 0.05.
Turning to `O=C(Cn1ccnc1[N+](=O)[O-])NCc1ccccc1` [BENZNIDAZOLE], the IC50 in [2] is 2.13 µM. In addition, in data set [12], the “Ratio IC50” value turned out to be 9.9.
As for `Nc1nc(N)nc(Nc2ccc([As]3SCC(CO)S3)cc2)n1` (stereo not given) [MELARSOPROL], in [8], the IC50 is 0.006 µM. The “Ratio IC50” value in data set [12] is listed as 1.
For `CCCCCCCCCCCCCCCCOP(=O)([O-])OCC[N+](C)(C)C` [MILTEFOSINE], in data set [7], the IC50 came out at 0.39 µM.
In the case of `CC1CS(=O)(=O)CCN1/N=C/c1ccc([N+](=O)[O-])o1` (stereo not given) [NIFURTIMOX], in [12], the “Ratio IC50” value amounted to 13.2.

Source of the values: ChEMBL document CHEMBL3351635, “Novel nitro(triazole/imidazole)-based heteroarylamides/sulfonamides as potential antitrypanosomal agents” (Eur J Med Chem, 2014).
